Reference: US20260250290A1 (BRISTOL-MYERS SQUIBB COMPANY, priority 2023, published 2026)
Counter-ions that a name gives are not always drawn.

Target: T1, full length SGK1 (Homo sapiens, UniProt O00141)
T1 construct: 125 μM full length SGK1 (Life Technologies Part #PR7358A); purchased Life Technologies PR7358A
T1 sequence (O00141 1-431): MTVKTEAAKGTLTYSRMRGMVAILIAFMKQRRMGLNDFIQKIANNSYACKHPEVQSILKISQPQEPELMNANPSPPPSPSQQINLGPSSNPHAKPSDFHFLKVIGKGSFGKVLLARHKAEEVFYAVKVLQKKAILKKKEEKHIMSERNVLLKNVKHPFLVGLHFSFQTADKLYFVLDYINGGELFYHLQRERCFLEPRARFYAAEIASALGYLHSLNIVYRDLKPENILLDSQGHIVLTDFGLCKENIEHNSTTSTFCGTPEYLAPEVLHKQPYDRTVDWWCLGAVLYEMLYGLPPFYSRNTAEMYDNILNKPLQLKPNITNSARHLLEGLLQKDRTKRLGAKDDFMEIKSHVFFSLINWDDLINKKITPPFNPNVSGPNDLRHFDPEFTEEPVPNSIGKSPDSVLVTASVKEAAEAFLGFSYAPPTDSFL
Assay: SGK1 inhibition Assay A (Caliper LabChip electrophoretic separation of fluorescent peptide substrate and phosphorylated product)
Format: biochemical
Conditions: Assay A; 20 μM ATP, 40 min incubation; read-out: SGK1 IC50

Compound | IC50 [nM]
CC(C)c1cc(C(=O)N[C@@H]2CCCN(c3cc(-c4ccnc(C(F)F)c4)n4ncnc(N)c34)C2)[nH]n1 [Example 486, (R)-N-(1-(4-amino-7-(2-(difluoromethyl)pyridin-4-yl)pyrrolo[2,1-f][1,2,4]triazin-5-yl)piperidin-3-yl)-3-isopropyl-1H-pyrazole-5-carboxamide] | 27
COC(=O)N1CC=C(c2cc(N3CCC[C@@H](NC(=O)c4sc(Cl)cc4OCCN(C)C)C3)c3c(N)ncnn23)CC1 [Example 174, methyl (R)-4-(4-amino-5-(3-(5-chloro-3-(2-(dimethylamino)ethoxy)thiophene-2-carboxamido)piperidin-1-yl)pyrrolo[2,1-f][1,2,4]triazin-7-yl)-3,6-dihydropyridine-1(2H)-carboxylate] | 37
COc1ccc(OC(=O)N[C@@H]2CCCN(c3cc(C4=CCN(C(C)=O)C4)n4ncnc(N)c34)C2)cc1 [Example 812, 4-methoxyphenyl (R)-(1-(7-(1-acetyl-2,5-dihydro-1H-pyrrol-3-yl)-4-aminopyrrolo[2,1-f][1,2,4]triazin-5-yl)piperidin-3-yl)carbamate TFA salt] | 984
COc1cncc(C(=O)N[C@@H]2CCCN(c3cc(-c4ccc(S(C)(=O)=O)cc4)n4ncnc(N)c34)C2)c1 [Example 102, (R)-N-(1-(4-amino-7-(4-(methylsulfonyl)phenyl)pyrrolo[2,1-f][1,2,4]triazin-5-yl)piperidin-3-yl)-5-methoxynicotinamide, TFA] | 45
COC(=O)N1CC=C(c2cc(N3CCCC(NC(=O)c4sc(Cl)cc4OC4CCNC(C)(C)C4)C3)c3c(N)ncnn23)C1 (single isomer, unassigned) [Example 630] | 2
CC(=O)N1CC=C(c2cc(N3CCC[C@@H](NC(=O)c4sc(Cl)cc4OC4CN(CC(F)F)C4)C3)c3c(N)ncnn23)C1 [Example 384, (R)-N-(1-(7-(1-acetyl-2,5-dihydro-1H-pyrrol-3-yl)-4-aminopyrrolo[2,1-f][1,2,4]triazin-5-yl)piperidin-3-yl)-5-chloro-3-((1-(2,2-difluoroethyl)azetidin-3-yl)oxy)thiophene-2-carboxamide] | 57
Cc1cc(C(=O)N[C@@H]2CCCN(c3cc(-c4ccc(S(C)(=O)=O)cc4)n4ncnc(N)c34)C2)sn1 [Example 73, (R)-N-(1-(4-amino-7-(4-(methylsulfonyl)phenyl)pyrrolo[2,1-f][1,2,4]triazin-5-yl)piperidin-3-yl)-3-methylisothiazole-5-carboxamide] | 8
COCCOc1cc(Cl)sc1C(=O)N[C@@H]1CCCN(c2cc(-c3ccc(C(N)=O)c(F)c3)n3ncnc(N)c23)C1 [Example 162, (R)-N-(1-(4-amino-7-(4-carbamoyl-3-fluorophenyl)pyrrolo [2,1-f][1,2,4]triazin-5-yl)piperidin-3-yl)-5-chloro-3-(2-methoxyethoxy) thiophene-2-carboxamide] | 5
CS(=O)(=O)c1ccc(-c2cc(N3CCC[C@@H](NC(=O)c4ccc5c(c4)CC5)C3)c3c(N)ncnn23)cc1 [Example 83, (R)-N-(1-(4-amino-7-(4-(methylsulfonyl)phenyl)pyrrolo[2,1-f][1,2,4]triazin-5-yl)piperidin-3-yl)bicyclo[4.2.0]octa-1(6),2,4-triene-3-carboxamide, TFA] | 48
CC(=O)N1CC=C(c2cc(N3CCC[C@@H](NC(=O)c4sc(Cl)cc4OC4CCNC4)C3)c3c(N)ncnn23)C1 (stereo partly drawn) [Example 636, N-((R)-1-(7-(1-acetyl-2,5-dihydro-1H-pyrrol-3-yl)-4-aminopyrrolo[2,1-f][1,2,4]triazin-5-yl)piperidin-3-y1)-5-chloro-3-(pyrrolidin-3-yloxy)thiophene-2-carboxamide] | 5
COc1cc(C(=O)N[C@@H]2CCCN(c3cc(-c4ccc(S(C)(=O)=O)cc4)n4ncnc(N)c34)C2)c(OC)nn1 [Example 67, (R)-N-(1-(4-amino-7-(4-(methylsulfonyl)phenyl)pyrrolo[2,1-f][1,2,4]triazin-5-yl)piperidin-3-yl)-3,6-dimethoxypyridazine-4-carboxamide] | 261
Nc1ncnn2c(-c3ccnc(F)c3)cc(N3CCC[C@@H](NC(=O)c4ccc(C(F)F)s4)C3)c12 [Example 152, (R)-N-(1-(4-amino-7-(2-fluoropyridin-4-yl)pyrrolo[2,1-f][1,2,4]triazin-5-yl)piperidin-3-yl)-5-(difluoromethyl)thiophene-2-carboxamide, TFA] | 5
N#Cc1ccc(-c2cc(N3CCC[C@@H](NC(=O)c4sc(C(F)F)cc4C4CCNCC4)C3)c3c(N)ncnn23)cn1 [Example 395, (R)-N-(1-(4-amino-7-(6-cyanopyridin-3-yl)pyrrolo[2,1-f][1,2,4]triazin-5-yl)piperidin-3-yl)-5-(difluoromethyl)-3-(piperidin-4-yl)thiophene-2-carboxamide] | 210
CS(=O)(=O)N1CC=C(c2cc(N3CCC[C@@H](NC(=O)c4ccc(Cl)s4)C3)c3c(N)ncnn23)C1 [Example 134, (R)—N-(1-(4-amino-7-(1-(methylsulfonyl)-2,5-dihydro-1H-pyrrol-3-yl)pyrrolo[2,1-f][1,2,4]triazin-5-yl)piperidin-3-yl)-5-chlorothiophene-2-carboxamide] | 2
COC(=O)N1CC=C(c2cc(N3CCC[C@@H](NC(=O)c4cc5cc(C#N)ccc5[nH]4)C3)c3c(N)ncnn23)C1 [Example 498, Methyl (R)-3-(4-amino-5-(3-(5-cyano-1H-indole-2-carboxamido)piperidin-1-yl)pyrrolo[2,1-f][1,2,4]triazin-7-yl)-2,5-dihydro-1H-pyrrole-1-carboxylate] | 41
CS(=O)(=O)c1ccc(-c2cc(N3CCC[C@@H](NC(=O)c4cc(Cl)no4)C3)c3c(N)ncnn23)cc1 [Example 74, (R)-N-(1-(4-amino-7-(4-(methylsulfonyl)phenyl)pyrrolo[2,1-f][1,2,4]triazin-5-yl)piperidin-3-yl)-3-chloroisoxazole-5-carboxamide, TFA] | 25

The next lines start with the values.

IC50 [nM] | Compound
44 | CC(=O)N1CC=C(c2cc(N3CCC[C@@H](NC(=O)c4cccc(N5CCN(C)C(C)C5)n4)C3)c3c(N)ncnn23)C1 (stereo partly drawn) [Example 777, N-((R)-1-(7-(1-acetyl-2,5-dihydro-1H-pyrrol-3-yl)-4-aminopyrrolo[2,1-f][1,2,4]triazin-5-yl)piperidin-3-yl)-6-(3,4-dimethylpiperazin-1-yl)picolinamide]
374 | Nc1ncnn2c(-c3cncnc3)cc(N3CCC[C@@H](NC(=O)c4sc(C(F)F)cc4N4CC5(COC5)C4)C3)c12 [Example 314, (R)—N-(1-(4-amino-7-(pyrimidin-5-yl)pyrrolo[2,1-f][1,2,4]triazin-5-yl)piperidin-3-yl)-5-(difluoromethyl)-3-(2-oxa-6-azaspiro[3.3]heptan-6-yl)thiophene-2-carboxamide]
1 | CN1CCN(CCOc2cc(Cl)sc2C(=O)N[C@@H]2CCCN(c3cc(-c4ccnc(F)c4)n4ncnc(N)c34)C2)CC1 [Example 167, (R)—N-(1-(4-amino-7-(2-fluoropyridin-4-yl)pyrrolo[2,1-f][1,2,4]triazin-5-yl)piperidin-3-yl)-5-chloro-3-(2-(4-methylpiperazin-1-yl)ethoxy)thiophene-2-carboxamide, 2 TFA]
90 | CC(=O)N1CC=C(c2cc(N3CCC[C@@H](NC(=O)c4ccc(-c5cncnc5)s4)C3)c3c(N)ncnn23)C1 [Example 548, (R)-N-(1-(7-(1-acetyl-2,5-dihydro-1H-pyrrol-3-yl)-4-aminopyrrolo[2,1-f][1,2,4]triazin-5-yl)piperidin-3-yl)-5-(pyrimidin-5-yl)thiophene-2-carboxamide]
7 | Nc1ncnn2c(-c3ccnc(F)c3)cc(N3CCC[C@@H](NC(=O)c4ccc(C(F)(F)F)s4)C3)c12 [Example 154, (R)-N-(1-(4-amino-7-(2-fluoropyridin-4-yl)pyrrolo[2,1-f][1,2,4]triazin-5-yl)piperidin-3-yl)-5-(trifluoromethyl)thiophene-2-carboxamide, TFA]
138 | COC(=O)N1CC=C(c2cc(N3CCC[C@@H](NC(=O)c4cc5cc(F)ccc5[nH]4)C3)c3c(N)ncnn23)C1 [Example 518, Methyl (R)-3-(4-amino-5-(3-(5-fluoro-1H-indole-2-carboxamido)piperidin-1-yl)pyrrolo[2,1-f][1,2,4]triazin-7-yl)-2,5-dihydro-1H-pyrrole-1-carboxylate]
18 | Nc1ncnn2c(C3=CCN(C(=O)C4CC45CC5)C3)cc(N3CCC[C@@H](NC(=O)c4sc(Cl)cc4OCCN4CCOCC4)C3)c12 (stereo partly drawn) [Example 265, N-((3R)-1-(4-amino-7-(1-(spiro[2.2]pentane-1-carbonyl)-2,5-dihydro-1H-pyrrol-3-yl)pyrrolo[2,1-f][1,2,4]triazin-5-yl)piperidin-3-yl)-5-chloro-3-(2-morpholinoethoxy)thiophene-2-carboxamide]
5 | COC(=O)N1CC=C(c2cc(N3CCC[C@@H](NC(=O)c4sc(C(F)F)cc4OC4CCN(C(C)=O)CC4)C3)c3c(N)ncnn23)C1 [Example 411, methyl (R)-3-(5-(3-(3-((1-acetylpiperidin-4-yl)oxy)-5-(difluoromethyl)thiophene-2-carboxamido)piperidin-1-yl)-4-aminopyrrolo[2,1-f][1,2,4]triazin-7-yl)-2,5-dihydro-1H-pyrrole-1-carboxylate]
467 | CC(C)(C)OC(=O)CCn1cc(-c2cc(N3CCC[C@@H](NC(=O)c4ccc(Cl)s4)C3)c3c(N)ncnn23)nn1 [Example 863, tert-butyl (R)-3-(4-(4-amino-5-(3-(5-chlorothiophene-2-carboxamido)piperidin-1-yl)pyrrolo[2,1-f][1,2,4]triazin-7-yl)-1H-1,2,3-triazol-1-yl)propanoate]
